# Measurements as given in patent US7803408B2, “Method of treating endothelial injury” (East Carolina University, priority 1996, dated 2010).
# Read-outs that look alike come from different tables or passages of the source.
# Legend:
# [1] = system: Human umbilical vein endothelial cells (HUVECs); format: cell-based
# Description: (§1) Cell Culture. Human umbilical vein endothelial cells (HUVECs) were obtained from Caesarian section derived cords. HUVECs were cultured by standard methodology in 25 cm^2 T-flasks (Corning Inc., Corning, N.Y.) coated with 0.5% porcine skin gelatin (Sigma Chemical Co., St. Louis, Mo.). Medium 199 (Life Technologies, Gaithersburg, Md.), supplemented with 20% defined fetal bovine serum (FBS) (Hyclone, Logan, Utah), 16 U/ml heparin (Sigma), 50 μg/ml bovine hypothalamus derived endothelial mitogen (Biomedical Technologies, Stoughton, Mass.), 100 U/ml penicillin and 100 μg/ml streptomycin was used for the growth of HUVECs. Endothelial cells were characterized by homogenous and typical cobblestone morphology, von Willebrand factor antigen positively, and the presence of Weibel-Palade bodies, as are known in the art.
# (§2) Protection/Inhibition Assay. The number of metabolically active cells after exposure of endothelial cell cultures to test agents was assessed using a calorimetric method. This assay utilizes solutions of a tetrazolium compound [3-(4,5-dimethylthiazol-2-yl)-5-(3-carboxymethoxyphenyl)-2-(4 Sulfophenyl)-2H-tetrazolium] (MTS) and an electron coupling reagent, phenazine methosulfate (PMS; available from Promega Corp., Madison, Wis.). See Denizot and Lang, J. Immunol. Methods 89:271 (1986); Promega Corporation Technical Bulletins 112, 152 and 169). […] The amount of formazan is measured at 490 nm absorbance and is directly proportional to the numbers of living cells in culture.
# (§3) Endothelial cells grown in the complete (supplemented) M199 medium were harvested in the log phase. […] The number and viability of the cells was determined using a hemocytometer and the trypan blue staining, respectively. […] The absorbance of each well at 490 nm was recorded using an ELISA plate reader. The LD50 and the effect of the various treatments on cell viability and chemosensitivity were determined by plotting the corrected absorbance at 490 nm versus the concentration of the additive (EPO, chemotherapeutic agent, or combinations thereof). […]
# [2] = system: Human umbilical vein endothelial cells (HUVECs); assay: Protection/inhibition assay, EPO added two hours after cisplatin (MTS/PMS); format: cell-based
# Description: as §1
# as §2, with “Wis.).” for “Wis.). See Denizot and Lang, J. Immunol. Methods 89:271 (1986); Promega Corporation Technical Bulletins 112, 152 and 169).”
# as §3
# Endothelial cell cultures were prepared as described in Example 1. […] Endothelial cell viability was assessed using the MTS/PMS colorimetric assay described in Example 1.
# [3] = system: Human umbilical vein endothelial cells (HUVECs); format: cell-based; remark: listed apart in the source
# Description: as §1, with “Endothelial cells were characterized by homogenous and typical cobblestone morphology, von Willebrand factor antigen positively, and the presence of Weibel-Palade bodies, as are known in the art.” left out
# Protection/Inhibition Assay. The number of metabolically active cells after exposure of endothelial cell cultures to test agents was assessed using a calorimetric method. […] The amount of formazan is measured at 490 nm absorbance and is directly proportional to the numbers of living cells in culture.
# Endothelial cells grown in the complete (supplemented) M199 medium were harvested in the log phase. […] The number and viability of the cells was determined using a hemocytometer and the trypan blue staining, respectively. […] The absorbance of each well at 490 nm was recorded using an ELISA plate reader. […]
# Endothelial cell cultures were prepared as described in Example 1. […] Endothelial cell viability was assessed using the MTS/PMS calorimetric assay described in Example 1.
# [4] = doses of up to 1,500 Units/kg for three to four weeks; cited from earlier work
# [5] = system: human umbilical vein endothelial cells; settings: cited from earlier work
# [6] = system: bovine capillary endothelial cells; settings: cited from earlier work
substance,measurement,setting,value
erythropoietin [EPO],effect on endothelial cell cultures vs cisplatin alone,[1]; 0.15 to 1.25 U/ml EPO simultaneously with 1 μg/ml cisplatin,protected from the damaging effects of cisplatin
same,number of viable cells greater than in control cultures treated with cisplatin only,[1]; 0.3 U/ml EPO simultaneously with 1 μg/ml cisplatin,approximately 30%
same,endothelial cell growth vs cisplatin alone,[1]; 5 to 20 U/ml EPO simultaneously with 1 μg/ml cisplatin,inhibited
same,effect on endothelial cell cultures vs cisplatin alone,[2]; 0.15 to 5 U/ml EPO two hours following 1 μg/ml cisplatin,protected from the damaging effects of cisplatin
same,number of viable cells greater than that of controls,[2]; 1.25 U/ml EPO two hours after 1 μg/ml cisplatin,34%
same,cell viability vs controls (cisplatin only),[2]; 10 to 20 U/ml EPO two hours after 1 μg/ml cisplatin,reduced over that seen in controls
same,reduction of cell growth compared to controls,[3]; 2.5 U/ml EPO two hours prior to cisplatin,48%
same,reduction of cell growth compared to controls,[3]; 5 U/ml EPO two hours prior to cisplatin,58%
same,toxic effects due to EPO itself,[4],without toxic effects
same,mitogenic and chemoattractant (migratory) effect,[5],exerts a mitogenic and chemoattractant (migratory) effect
same,mitogenic and chemoattractant (migratory) effect,[6],exerts a mitogenic and chemoattractant (migratory) effect
